In patent publication US10988459B2 (priority 2015, dated 2021):

Target: human RIP1 kinase domain (2-375) (Homo sapiens (Human), UniProt Q13546)
Experiment: biochemical
Assay type: biochemical
Conditions: Ki
In short: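 Ki^app comes from Morrison tight-binding fits of fractional activity versus compound concentration. Activity was read as ADP production, via tracer displacement lowering fluorescence polarization (633 nm laser). Conditions: 2 h, 50 nM insect-cell-expressed enzyme, 50 uM ATP, 30 mM MgCl2, 1 mM DTT, 0.5% DMSO, pH 7.5 Hepes.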

human RIP1 kinase domain (2-375), sequence (Q13546 2-375): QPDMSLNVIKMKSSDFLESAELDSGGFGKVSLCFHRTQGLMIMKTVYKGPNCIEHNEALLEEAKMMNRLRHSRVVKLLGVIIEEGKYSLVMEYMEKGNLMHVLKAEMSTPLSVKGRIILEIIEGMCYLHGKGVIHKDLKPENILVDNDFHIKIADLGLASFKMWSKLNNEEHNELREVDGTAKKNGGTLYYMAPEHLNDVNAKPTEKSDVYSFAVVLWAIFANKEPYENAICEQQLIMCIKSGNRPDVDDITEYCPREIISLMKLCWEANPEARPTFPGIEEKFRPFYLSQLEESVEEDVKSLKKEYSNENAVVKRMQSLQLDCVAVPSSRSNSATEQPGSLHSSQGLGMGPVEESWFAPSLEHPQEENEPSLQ

`CN1C(=O)[C@@H](NC(=O)c2ncc3cnn(C4CCOCC4)c3n2)COc2ccccc21` [Example 558, N-[(3S)-5-methyl-4-oxo-2,3-dihydro-1,5-benzoxazepin-3-yl]-1-tetrahydropyran-4-yl-pyrazolo[3,4-d]pyrimidine-6-carboxamide] gave a Ki of 39 nM.

Same assay, conditions: tight-binding apparent inhibition constant; human RIP1 kinase domain (2-375) 50 nM, 50 uM ATP, 2 hours; read-out: Ki

`CN1C(=O)[C@@H](NC(=O)c2ncn(Cc3cccc(F)c3)n2)CCn2nc(C3CC3)cc21` [Example 531] and `CN1C(=O)[C@@H](NC(=O)c2ncn(Cc3cccc(Cl)c3)n2)CCn2nc(C3CC3)cc21` [Example 538] are within 1.5-fold of each other in Ki: 14 nM for the first, 19 nM for the second.

Going from `CN1C(=O)[C@@H](NC(=O)c2ncn(Cc3ccc(Cl)cc3)n2)CCn2nc(C(F)(F)F)cc21` [Example 532] to `CN1C(=O)[C@@H](NC(=O)c2ncn(Cc3cccc(Cl)c3)n2)CCn2nc(C(F)(F)F)cc21` [Example 533], the Ki rises from 24 nM to 45 nM (1.9-fold).

`CN1C(=O)[C@@H](NC(=O)c2ncn(Cc3cccc(Cl)c3Cl)n2)CCn2nc(C(F)(F)F)cc21` [Example 534] and `CN1C(=O)[C@@H](NC(=O)c2ncn(Cc3ccccc3)n2)CCn2nc(C[C@H]3CC3(F)F)cc21` [Example 547, 1-benzyl-N-(6S)-4-methyl-5-oxo-2-[(1 S)-2,2-difluorocyclopropylmethyl]-7,8-dihydro-6H-pyrazolo[1,5-a][1,3]diazepin-6-yl-1,2,4-triazole-3-carboxamide] are within 1.5-fold of each other in Ki: 7.6 nM for the first, 8.5 nM for the second.

Going from `Cc1cn2c(n1)N(C)C(=O)C(NC(=O)c1ncn(Cc3ccccc3)n1)CC2` (centres unmarked) [Example 535, 1-benzyl-N-(2,9-dimethyl-8-oxo-6,7,8,9-tetrahydro-5H-imidazo[1,2-a][1,3]diazepin-7-yl)-1H-1,2,4-triazole-3-carboxamide] to `Cc1cnc2n1CCC(NC(=O)c1ncn(Cc3ccccc3)n1)C(=O)N2C` (centres unmarked) [Example 546, 1-benzyl-N-(3,9-dimethyl-8-oxo-6,7-dihydro-5H-imidazo[1,2-a][1,3]diazepin-7-yl)-1,2,4-triazole-3-carboxamide], the Ki rises from 130 nM to 220 nM (1.7-fold).

Compared with `CN1C(=O)[C@@H](NC(=O)c2ncc3cnn(-c4ccccc4)c3n2)COc2ccccc21` [Example 536, phenyl-N-[(3S)-5-methyl-4-oxo-2,3-dihydro-1,5-benzoxazepin-3-yl]pyrazolo[3,4-d]pyrimidine-6-carboxamide], `Cc1cc2n(n1)CC[C@H](NC(=O)c1ncc3cnn(-c4ccccc4)c3n1)C(=O)N2C` [Example 540, 1-phenyl-N-[(6S)-2,4-dimethyl-5-oxo-7,8-dihydro-6H-pyrazolo[1,5-a][1,3]diazepin-6-yl]pyrazolo[3,4-d]pyrimidine-6-carboxamide] is 16-fold higher in Ki: 3.5 nM for the first, 57 nM for the second. The first binds more tightly here.

Going from `CN1C(=O)[C@@H](NC(=O)c2nccc(C3(O)CCC3)n2)COc2ccccc21` [Example 537, 4-(1-hydroxycyclobutyl)-N-[(3S)-5-methyl-4-oxo-2,3-dihydro-1,5-benzoxazepin-3-yl]pyrimidine-2-carboxamide] to `CCC(C)(O)c1ccnc(C(=O)N[C@H]2COc3ccccc3N(C)C2=O)n1` (stereo partly drawn) [Example 549, 4-(1-hydroxy-1-methyl-propyl)-N-[(3S)-5-methyl-4-oxo-2,3-dihydro-1,5-benzoxazepin-3-yl]pyrimidine-2-carboxamide], the Ki rises from 2100 nM to 3700 nM (1.8-fold).

First: Cc1cc2n(n1)CC[C@H](NC(=O)c1ncc3cnn(C(C)C)c3n1)C(=O)N2C [Example 539, 1-isopropyl-N-[(6S)-2,4-dimethyl-5-oxo-7,8-dihydro-6H-pyrazolo[1,5-a][1,3]diazepin-6-yl]pyrazolo[3,4-d]pyrimidine-6-carboxamide]
Second: Cc1cc2n(n1)CC[C@H](NC(=O)c1ncc3cnn(C4CCCC4)c3n1)C(=O)N2C [Example 543, 1-cyclopentyl-N-[(6S)-2,4-dimethyl-5-oxo-7,8-dihydro-6H-pyrazolo[1,5-a][1,3]diazepin-6-yl]pyrazolo[3,4-d]pyrimidine-6-carboxamide]
The Ki of the first is 2.2-fold higher: 150 nM for the first, 68 nM for the second. The second binds more tightly here.

`Cc1cc2n(n1)CC[C@H](NC(=O)c1nnn(Cc3ccccc3)n1)C(=O)N2C` [Example 541, 2-benzyl-N-(6S)-2,4-dimethyl-5-oxo-7,8-dihydro-6H-pyrazolo[1,5-a][1,3]diazepin-6-yltetrazole-5-carboxamide] and `CN1C(=O)[C@@H](NC(=O)c2nnn(Cc3ccccc3)n2)CCn2nc(C3CC3)cc21` [Example 542] are within 1.5-fold of each other in Ki: 5 nM for the first, 6.4 nM for the second.

`Cc1cc2n(n1)CC[C@H](NC(=O)c1ncc3c(n1)C1(CCCOC1)OC3)C(=O)N2C` (stereo partly drawn) [Example 544, N-[(6S)-2,4-dimethyl-5-oxo-7,8-dihydro-6H-pyrazolo[1,5-a][1,3]diazepin-6-yl]spiro[5H-furo[3,4-d]pyrimidine-7,3′-tetrahydropyran]-2-carboxamide] and `Cc1cc2n(n1)CC[C@H](NC(=O)c1ncc3c(n1)C1(CCOC1)OC3)C(=O)N2C` (stereo partly drawn) [Example 551, N-[(6S)-2,4-dimethyl-5-oxo-7,8-dihydro-6H-pyrazolo[1,5-a][1,3]diazepin-6-yl]spiro[5H-furo[3,4-d]pyrimidine-7,3′-tetrahydrofuran]-2-carboxamide] are within 1.5-fold of each other in Ki: 1200 nM for the first, 960 nM for the second.

First: Cc1cc2n(n1)CC[C@H](NC(=O)c1cc3c(cn1)COC31CCCOC1)C(=O)N2C (stereo partly drawn) [Example 545, N-[(6S)-2,4-dimethyl-5-oxo-7,8-dihydro-6H-pyrazolo[1,5-a][1,3]diazepin-6-yl]spiro[3H-furo[3,4-c]pyridine-1,3′-tetrahydropyran]-6-carboxamide]
Second: Cc1cc2n(n1)CC[C@H](NC(=O)c1ncc3c(n1)C1(CCCC1)OC3)C(=O)N2C [Example 552, N-[(6S)-2,4-dimethyl-5-oxo-7,8-dihydro-6H-pyrazolo[1,5-a][1,3]diazepin-6-yl]spiro[5H-furo[3,4-d]pyrimidine-7,1′-cyclopentane]-2-carboxamide]
The Ki of the first is 19-fold higher: 2100 nM for the first, 110 nM for the second. The second binds more tightly here.

First: CN1C(=O)[C@@H](NC(=O)c2ncn(Cc3ccccc3)n2)CCn2nc(C[C@@H]3CC3(F)F)cc21 [Example 548, 1-benzyl-N-(6S)-4-methyl-5-oxo-2-[(1R)-2,2-difluorocyclopropylmethyl]-7,8-dihydro-6H-pyrazolo[1,5-a][1,3]diazepin-6-yl-1,2,4-triazole-3-carboxamide]
Second: Cc1cc2n(n1)CC[C@H](NC(=O)c1ncn(CC3CC(C)(C)C3)n1)C(=O)N2C [Example 555, 1-[(3,3-dimethylcyclobutyl)methyl]-N-(6S)-2,4-dimethyl-5-oxo-7,8-dihydro-6H-pyrazolo[1,5-a][1,3]diazepin-6-yl-1,2,4-triazole-3-carboxamide]
The Ki of the first is 4.4-fold lower: 9.7 nM for the first, 43 nM for the second. The first binds more tightly here.

First: CN1C(=O)[C@H](NC(=O)c2nnc(Cc3ccc(F)cc3)[nH]2)CCn2nc(C(F)(F)F)cc21 [Example 550]
Second: Cc1cc2n(n1)CC[C@H](NC(=O)c1nc3n(n1)CCCC3c1ccccc1)C(=O)N2C (stereo partly drawn) [Example 554, 8-phenyl-N-[(6S)-2,4-dimethyl-5-oxo-7,8-dihydro-6H-pyrazolo[1,5-a][1,3]diazepin-6-yl]-5,6,7,8-tetrahydro-[1,2,4]triazolo[1,5-a]pyridine-2-carboxamide]
The Ki of the first is 1.6-fold lower: 210 nM for the first, 330 nM for the second. The first binds more tightly here.

First: CN1C(=O)[C@@H](NC(=O)c2nc3n(n2)CCCC3c2ccccc2)COc2ccccc21 (stereo partly drawn) [Example 553, 8-phenyl-N-[(3S)-5-methyl-4-oxo-2,3-dihydro-1,5-benzoxazepin-3-yl]-5,6,7,8-tetrahydro-[1,2,4]triazolo[1,5-a]pyridine-2-carboxamide]
Second: CN1C(=O)[C@@H](NC(=O)c2nc3n(n2)CCOC32CCCC2)COc2ccccc21 [Example 562, N-[(3S)-5-methyl-4-oxo-2,3-dihydro-1,5-benzoxazepin-3-yl]spiro[5,6-dihydro-[1,2,4]triazolo[5,1-c][1,4]oxazine-8,1′-cyclopentane]-2-carboxamide]
The Ki of the first is 2.3-fold lower: 8.7 nM for the first, 20 nM for the second. The first binds more tightly here.

First: CN1C(=O)[C@@H](NC(=O)c2ncc3c(n2)C(C)(C)S(=O)(=O)C3)COc2ccccc21 [Example 556, 7,7-dimethyl-6,6-dioxo-N-[(3S)-5-methyl-4-oxo-2,3-dihydro-1,5-benzoxazepin-3-yl]-5H-thieno[3,4-d]pyrimidine-2-carboxamide]
Second: CN1C(=O)[C@@H](NC(=O)c2ncc3cnn(C4CCCOC4)c3n2)COc2ccccc21 (stereo partly drawn) [Example 563, N-[(3S)-5-methyl-4-oxo-2,3-dihydro-1,5-benzoxazepin-3-yl]-1-tetrahydropyran-3-yl-pyrazolo[3,4-d]pyrimidine-6-carboxamide]
The Ki of the first is 50-fold higher: 2700 nM for the first, 54 nM for the second. The second binds more tightly here.

`Cc1cc2n(n1)CC[C@H](NC(=O)c1ncc3cnn(C4CCOCC4)c3n1)C(=O)N2C` [Example 559, N-[(6S)-2,4-dimethyl-5-oxo-7,8-dihydro-6H-pyrazolo[1,5-a][1,3]diazepin-6-yl]-1-tetrahydropyran-4-yl-pyrazolo[3,4-d]pyrimidine-6-carboxamide] and `CCCC1(C)OCc2cnc(C(=O)N[C@H]3CCn4nc(C)cc4N(C)C3=O)nc21` (stereo partly drawn) [Example 564, 7-methyl-7-propyl-N-[(6S)-2,4-dimethyl-5-oxo-7,8-dihydro-6H-pyrazolo[1,5-a][1,3]diazepin-6-yl]-5H-furo[3,4-d]pyrimidine-2-carboxamide] are within 1.5-fold of each other in Ki: 570 nM for the first, 590 nM for the second.

`Cc1cc2n(n1)CC[C@H](NC(=O)c1ncn(CC3(C)CCC3)n1)C(=O)N2C` [Example 560, 1-[(1-methylcyclobutyl)methyl]-N-(6S)-2,4-dimethyl-5-oxo-7,8-dihydro-6H-pyrazolo[1,5-a][1,3]diazepin-6-yl-1,2,4-triazole-3-carboxamide] and `CN1C(=O)[C@@H](NC(=O)c2ncn(CC3(C)CCC3)n2)CCn2nc(C3CC3)cc21` [Example 561] are within 1.5-fold of each other in Ki: 140 nM for the first, 100 nM for the second.

Going from `CN1C(=O)[C@@H](NC(=O)c2ncc3c(n2)C2(CCCC2)OC3)CCn2nccc21` [Example 565, N-[(6S)-4-methyl-5-oxo-7,8-dihydro-6H-pyrazolo[1,5-a][1,3]diazepin-6-yl]spiro[5H-furo [3,4-d]pyrimidine-7,1′-cyclopentane]-2-carboxamide] to `CCCC1(C)OCc2cnc(C(=O)N[C@H]3CCn4nccc4N(C)C3=O)nc21` (stereo partly drawn) [Example 566, 7-methyl-7-propyl-N-[(6S)-4-methyl-5-oxo-7,8-dihydro-6H-pyrazolo[1,5-a][1,3]diazepin-6-yl]-5H-furo[3,4-d]pyrimidine-2-carboxamide], the Ki rises from 70 nM to 480 nM (6.9-fold). The first binds more tightly here.
